Reference: US20230017786A1, “DEXTR[…] A DISEASE-MODIFYING TREATMENT FOR NEUROPSYCHIATRIC DISORDERS AND DISEASES” (priority 2020, published 2023)
Values joined by “and” are separate entries in the source; they are usually repeats but may differ in a detail not shown here. Identical values can stand only once. Counter-ions that a name gives are not always drawn.

Assays:
Type in all cases: cell-based
[1] = system: diheteromeric human recombinant NMDAR containing GluN1 plus GluN2A, GluN2B, GluN2C or GluN2D; assay: FLIPR calcium assay, statements for all four NMDAR subtypes together; conditions: for profile on L-glutamate CRC: 6 test item concentrations
Text: An operational equation for allosteric modulators (Leach K, Sexton P M and Christopoulos A, Allosteric GPCR modulators: taking advantage of permissive receptor pharmacology, Trends Pharmacol. Sci. 28: 382-389, 2007; Kenakin T P, Overview of receptor interaction of agonists and antagonists, Curr. Protoc. Pharmacol. Chapter 4: Unit 4.1, 2008, Kenakin T P, Biased signalling and allosteric machines: new vistas and challenges for drug discovery, Br. J. Pharmacol. 165: 1659-1669, 2012) was created in Prism 8 (GraphPad) software to estimate KB and a parameters for every test item, with the assumption that, as a pore blocker, every test item would be able to produce a compete blockade of agonist response, at sufficiently high concentration: […]

[2] = target: T1, human NMDA receptor GluN1-GluN2A (Homo sapiens, UniProt Q05586+Q12879); assay: FLIPR calcium assay, test item effect on L-glutamate CRC, GluN1-GluN2A-CHO
T1 construct: expressed in transfected cells; host or cells: CHO
T1 sequence (Q12879 23-1464, other chains not shown): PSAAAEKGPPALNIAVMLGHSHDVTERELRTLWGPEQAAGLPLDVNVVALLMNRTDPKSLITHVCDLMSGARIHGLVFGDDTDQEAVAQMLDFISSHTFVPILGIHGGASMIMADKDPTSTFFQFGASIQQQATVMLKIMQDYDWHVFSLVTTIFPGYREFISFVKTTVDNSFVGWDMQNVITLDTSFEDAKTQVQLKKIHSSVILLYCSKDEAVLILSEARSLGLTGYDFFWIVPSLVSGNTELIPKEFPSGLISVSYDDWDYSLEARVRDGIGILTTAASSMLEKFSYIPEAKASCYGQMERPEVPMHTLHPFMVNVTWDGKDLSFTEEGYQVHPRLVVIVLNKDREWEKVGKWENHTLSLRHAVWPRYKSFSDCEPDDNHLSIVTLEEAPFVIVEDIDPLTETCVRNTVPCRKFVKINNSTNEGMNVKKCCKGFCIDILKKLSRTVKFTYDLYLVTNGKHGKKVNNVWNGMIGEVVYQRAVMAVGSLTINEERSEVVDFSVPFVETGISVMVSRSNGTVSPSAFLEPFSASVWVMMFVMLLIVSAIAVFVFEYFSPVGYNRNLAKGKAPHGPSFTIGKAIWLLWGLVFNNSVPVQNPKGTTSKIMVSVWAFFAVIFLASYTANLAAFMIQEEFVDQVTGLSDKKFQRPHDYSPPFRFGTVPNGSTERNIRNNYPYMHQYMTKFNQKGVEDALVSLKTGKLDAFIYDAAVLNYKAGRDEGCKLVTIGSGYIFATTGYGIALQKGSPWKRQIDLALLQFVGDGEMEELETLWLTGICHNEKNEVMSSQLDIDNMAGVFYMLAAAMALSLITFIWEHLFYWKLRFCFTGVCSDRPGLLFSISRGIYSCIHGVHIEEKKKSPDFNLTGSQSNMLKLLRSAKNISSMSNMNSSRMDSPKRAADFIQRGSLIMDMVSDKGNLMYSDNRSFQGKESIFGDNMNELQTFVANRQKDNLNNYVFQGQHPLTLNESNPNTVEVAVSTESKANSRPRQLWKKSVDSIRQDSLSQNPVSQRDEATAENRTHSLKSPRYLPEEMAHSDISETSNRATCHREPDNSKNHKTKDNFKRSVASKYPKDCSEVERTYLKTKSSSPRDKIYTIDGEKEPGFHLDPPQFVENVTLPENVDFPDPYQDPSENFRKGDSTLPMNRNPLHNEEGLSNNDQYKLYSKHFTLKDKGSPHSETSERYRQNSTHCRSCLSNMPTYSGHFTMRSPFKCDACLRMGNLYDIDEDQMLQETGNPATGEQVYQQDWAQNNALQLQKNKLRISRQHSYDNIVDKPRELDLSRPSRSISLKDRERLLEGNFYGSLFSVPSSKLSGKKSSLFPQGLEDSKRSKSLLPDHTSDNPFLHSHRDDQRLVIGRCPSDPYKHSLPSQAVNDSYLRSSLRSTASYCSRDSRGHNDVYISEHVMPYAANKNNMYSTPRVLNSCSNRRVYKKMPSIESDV
Procedure: (§1) FLIPR determination of intracellular calcium level was used as a read-out for NMDAR activation.
(§2) 400× compound plate was stored at −20° C. until FLIPR experimental day.
(§3) 4× compound plate was generated from 400× compound plate by addition of up to 30 μl/well of compound buffer on FLIPR experimental day.
(§4) A FLIPR system was used to monitor intracellular calcium level in NMDAR cell lines, pre-loaded for 1 hour with Fluo-4, and then washed with assay buffer.
(§5) Y=Bottom+(Top−Bottom)/(1+10^((LogEC50−Log[A])*HillSlope))

[3] = target: T2, human NMDA receptor GluN1-GluN2C (Homo sapiens, UniProt Q05586+Q14957); assay: FLIPR calcium assay, test item effect on L-glutamate CRC, GluN1-GluN2C-CHO
T2 construct: expressed in transfected cells; host or cells: CHO
T2 sequence (Q14957 20-1233, other chains not shown): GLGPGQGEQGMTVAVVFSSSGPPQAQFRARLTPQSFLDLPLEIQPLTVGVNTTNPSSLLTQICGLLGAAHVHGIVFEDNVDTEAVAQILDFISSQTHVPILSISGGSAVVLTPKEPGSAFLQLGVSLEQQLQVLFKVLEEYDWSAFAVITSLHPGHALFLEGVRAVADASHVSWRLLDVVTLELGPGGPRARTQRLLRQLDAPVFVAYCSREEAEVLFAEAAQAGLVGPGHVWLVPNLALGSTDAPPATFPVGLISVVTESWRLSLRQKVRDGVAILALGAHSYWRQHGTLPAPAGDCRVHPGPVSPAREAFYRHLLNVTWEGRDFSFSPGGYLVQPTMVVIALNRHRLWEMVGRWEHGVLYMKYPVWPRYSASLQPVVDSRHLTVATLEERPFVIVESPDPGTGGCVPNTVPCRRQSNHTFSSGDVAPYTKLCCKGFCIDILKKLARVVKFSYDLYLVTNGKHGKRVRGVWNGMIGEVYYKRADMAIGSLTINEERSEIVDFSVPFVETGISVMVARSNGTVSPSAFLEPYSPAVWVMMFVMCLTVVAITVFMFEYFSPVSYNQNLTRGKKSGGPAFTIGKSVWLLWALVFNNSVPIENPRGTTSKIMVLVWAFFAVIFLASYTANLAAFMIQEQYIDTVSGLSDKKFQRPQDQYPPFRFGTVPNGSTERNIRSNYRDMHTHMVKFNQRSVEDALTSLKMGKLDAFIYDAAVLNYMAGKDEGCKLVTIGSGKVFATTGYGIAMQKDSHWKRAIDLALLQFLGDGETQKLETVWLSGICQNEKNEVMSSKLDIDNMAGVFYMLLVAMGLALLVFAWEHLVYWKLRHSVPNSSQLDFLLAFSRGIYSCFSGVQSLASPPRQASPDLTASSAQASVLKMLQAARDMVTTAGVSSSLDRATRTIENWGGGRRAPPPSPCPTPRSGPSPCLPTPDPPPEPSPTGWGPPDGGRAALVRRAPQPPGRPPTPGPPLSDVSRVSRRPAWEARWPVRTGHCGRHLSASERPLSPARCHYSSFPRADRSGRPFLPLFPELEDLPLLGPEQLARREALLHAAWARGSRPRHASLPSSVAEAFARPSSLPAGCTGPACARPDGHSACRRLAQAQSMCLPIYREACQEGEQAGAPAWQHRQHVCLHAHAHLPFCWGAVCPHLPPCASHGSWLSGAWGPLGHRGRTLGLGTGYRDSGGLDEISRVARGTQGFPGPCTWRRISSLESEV
Procedure: as §1, §2, §3, §4, §5

[4] = target: T3, human NMDA receptor GluN1-GluN2D (Homo sapiens, UniProt O15399+Q05586); assay: FLIPR calcium assay, test item effect on L-glutamate CRC, GluN1-GluN2D-CHO
T3 construct: expressed in transfected cells; host or cells: CHO
T3 sequence (O15399 28-1336, other chains not shown): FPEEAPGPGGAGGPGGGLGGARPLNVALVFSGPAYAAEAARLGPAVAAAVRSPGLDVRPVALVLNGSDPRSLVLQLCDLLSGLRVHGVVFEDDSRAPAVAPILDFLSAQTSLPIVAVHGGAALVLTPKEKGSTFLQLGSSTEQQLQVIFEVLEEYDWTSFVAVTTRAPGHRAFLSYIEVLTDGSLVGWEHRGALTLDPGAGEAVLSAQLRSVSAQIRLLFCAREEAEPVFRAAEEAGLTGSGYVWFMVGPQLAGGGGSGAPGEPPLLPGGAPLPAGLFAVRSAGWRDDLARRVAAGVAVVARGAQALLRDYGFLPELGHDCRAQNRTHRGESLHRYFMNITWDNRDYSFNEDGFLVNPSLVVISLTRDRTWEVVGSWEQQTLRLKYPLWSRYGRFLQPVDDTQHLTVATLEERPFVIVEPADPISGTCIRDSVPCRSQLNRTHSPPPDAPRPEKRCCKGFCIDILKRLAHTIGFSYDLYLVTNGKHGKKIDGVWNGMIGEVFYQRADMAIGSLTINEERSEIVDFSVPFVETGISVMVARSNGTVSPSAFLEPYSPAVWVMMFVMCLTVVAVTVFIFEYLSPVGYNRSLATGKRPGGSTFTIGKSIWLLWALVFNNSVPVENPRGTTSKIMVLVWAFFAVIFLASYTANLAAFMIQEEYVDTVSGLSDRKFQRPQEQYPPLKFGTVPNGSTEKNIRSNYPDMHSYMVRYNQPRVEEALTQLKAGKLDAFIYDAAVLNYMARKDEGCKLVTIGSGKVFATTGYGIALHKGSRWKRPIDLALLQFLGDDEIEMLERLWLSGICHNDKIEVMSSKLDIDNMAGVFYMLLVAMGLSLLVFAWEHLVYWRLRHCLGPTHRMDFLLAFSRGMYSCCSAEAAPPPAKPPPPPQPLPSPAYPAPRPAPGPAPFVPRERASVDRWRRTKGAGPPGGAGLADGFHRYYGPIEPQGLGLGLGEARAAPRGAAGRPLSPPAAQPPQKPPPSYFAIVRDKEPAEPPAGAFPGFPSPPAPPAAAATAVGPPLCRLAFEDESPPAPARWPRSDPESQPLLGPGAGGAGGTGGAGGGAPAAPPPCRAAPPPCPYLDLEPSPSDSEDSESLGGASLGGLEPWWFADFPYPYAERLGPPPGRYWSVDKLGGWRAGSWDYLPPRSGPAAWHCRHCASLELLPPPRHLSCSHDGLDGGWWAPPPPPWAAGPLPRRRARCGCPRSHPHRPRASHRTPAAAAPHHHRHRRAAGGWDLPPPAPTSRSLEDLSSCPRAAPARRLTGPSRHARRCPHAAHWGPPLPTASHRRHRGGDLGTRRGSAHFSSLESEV
Procedure: as §1, §2, §3, §4, §5

[5] = target: T4, human NMDA receptor GluN1-GluN2B (Homo sapiens, UniProt Q05586+Q13224); assay: cell-based
T4 construct: expressed in transfected cells; host or cells: CHO
Procedure: as §1, §2, §3, §4, §5

[6] = target: T2, human NMDA receptor GluN1-GluN2C; assay: FLIPR calcium assay, quinolinic acid, gentamicin, dextromethadone (Example 5 Part II), GluN1-GluN2C-CHO; conditions: 10 μM glycine; for calcium response (mean±SEM): GluN2C, n=42
Procedure: (§6) Quinolinic acid or gentamicin CRCs were also produced, in presence of 10 μM glycine.
(§7) Test items were evaluated in FLIPR for their ability to modulate, alone or in combination, calcium entry in presence of […], using four CHO cell lines expressing diheteromeric human NMDA receptor (NMDAR): GluN-/GluN2A-CHO, GluN1-GluN2B-CHO, GluN1-GluN2C-CHO, GluN1-GluN2D-CHO.
(§8) The first aim of the study was to evaluate quinolinic acid or gentamicin CRC effect in the presence of 10 μM glycine.
as §1
(§9) 400× compound plate was stored at −20° C. till FLIPR experimental day.
(§10) A 4× compound plate was generated from 400× compound plate by addition of up to 30 μl/well of compound buffer on FLIPR experimental day.
as §4
(§11) Y=Bottom+(Top−Bottom)/(1+10^((LogEC50−X)*HillSlope))
(§12) Test item CRC data were plotted by Prism 8 GraphPad software, in the different experimental conditions. And, column analysis, performed by Prism 8 GraphPad software, was one way ANOVA followed by Tukey's multiple comparisons test, with a single pooled variance.

[7] = target: T4, human NMDA receptor GluN1-GluN2B; assay: FLIPR calcium assay, quinolinic acid, gentamicin, dextromethadone (Example 5 Part II), GluN1-GluN2B-CHO; conditions: 10 μM glycine, GluN2B, n=42
Procedure: as §6, §7, §8, §1, §9, §10, §4, §11, §12

[8] = target: T3, human NMDA receptor GluN1-GluN2D; assay: FLIPR calcium assay, quinolinic acid, gentamicin, dextromethadone (Example 5 Part II), GluN1-GluN2D-CHO; conditions: 10 μM glycine; for calcium response (mean±SEM): GluN2D, n=42
Procedure: as §6, §7, §8, §1, §9, §10, §4, §11, §12

[9] = target: T1, human NMDA receptor GluN1-GluN2A; assay: FLIPR calcium assay, quinolinic acid, gentamicin, dextromethadone (Example 5 Part II), GluN1-GluN2A-CHO; set-up: calcium response (mean±SEM): unit not given here; conditions: 10 μM glycine, GluN2A, n=42
Procedure: as §6, §7, §8, §1, §9, §10, §4, §11, §12

[10] = operational analysis for allosteric modulators
[11] = L-glutamate alone, 10 μM glycine
[12] = calculated from EC50 and Hill slope

## (+)-MK 801 maleate
[1]
  profile on L-glutamate CRC: insurmountable profile
[1]; from estimated affinities
  GluN2 subunit preference: slight preference for GluN2B containing NMDAR
[1]; read-out: estimated KB with any/all of the NMDAR subtypes
  Kb: 50 nM and ≤ 50 nM

## CC12CC3CC(C)(C1)CC(N)(C3)C2 [Memantine, memantine hydrochloride]
[2]; [10]
  α, estimated cooperativity term: 0.15
[2]; with test item 49 nM
  L-glutamate CRC Bottom: 0.84
  L-glutamate CRC HillSlope: 1.1
  L-glutamate CRC LogEC50: −6.6
  L-glutamate CRC Top: 95
[2]; with test item 195 nM
  L-glutamate CRC Bottom: 1.3
  L-glutamate CRC HillSlope: 1.2
  L-glutamate CRC LogEC50: −6.5
  L-glutamate CRC Top: 92
[2]; with test item 781 nM
  L-glutamate CRC Bottom: 1.1
  L-glutamate CRC HillSlope: 1.2
  L-glutamate CRC LogEC50: −6.3
  L-glutamate CRC Top: 96
[2]; with test item 3.1 μM
  L-glutamate CRC Bottom: −0.58
  L-glutamate CRC HillSlope: 1.1
  L-glutamate CRC LogEC50: −6.4
  L-glutamate CRC Top: 83
[2]; with test item 12.5 μM
  L-glutamate CRC Bottom: −0.14
  L-glutamate CRC HillSlope: 1.3
  L-glutamate CRC LogEC50: −6.3
  L-glutamate CRC Top: 68
[2]; with test item 50 μM
  L-glutamate CRC Bottom: 1.5
  L-glutamate CRC HillSlope: 1.6
  L-glutamate CRC LogEC50: −6.1
  L-glutamate CRC Top: 36
[3]; [10]
  α, estimated cooperativity term: 0.10
[3]; with test item 49 nM
  L-glutamate CRC Bottom: 2.2
  L-glutamate CRC HillSlope: 1.4
  L-glutamate CRC LogEC50: −6.8
  L-glutamate CRC Top: 92
[3]; with test item 195 nM
  L-glutamate CRC Bottom: 2.0
  L-glutamate CRC HillSlope: 1.5
  L-glutamate CRC LogEC50: −6.9
  L-glutamate CRC Top: 85
[3]; with test item 781 nM
  L-glutamate CRC Bottom: 0.92
  L-glutamate CRC HillSlope: 1.4
  L-glutamate CRC Top: 76
[3]; with test item 3.1 μM
  L-glutamate CRC Bottom: 1.3
  L-glutamate CRC HillSlope: 1.2
  L-glutamate CRC LogEC50: −6.5
  L-glutamate CRC Top: 49
[3]; with test item 12.5 μM
  L-glutamate CRC Bottom: 2.5
  L-glutamate CRC HillSlope: 1.1
  L-glutamate CRC LogEC50: −6.4
  L-glutamate CRC Top: 20
[3]; with test item 50 μM
  L-glutamate CRC Bottom: 7.4
  L-glutamate CRC HillSlope: 6.1
  L-glutamate CRC LogEC50: −6.3
  L-glutamate CRC Top: 11
[4]; [10]
  α, estimated cooperativity term: 0.13
[4]; with test item 49 nM
  L-glutamate CRC Bottom: 5.1
  L-glutamate CRC HillSlope: 1.4
  L-glutamate CRC LogEC50: −7.3
  L-glutamate CRC Top: 94
[4]; with test item 195 nM
  L-glutamate CRC Bottom: −0.19
  L-glutamate CRC HillSlope: 1.3
  L-glutamate CRC LogEC50: −7.3
  L-glutamate CRC Top: 89
[4]; with test item 781 nM
  L-glutamate CRC Bottom: 1.1
  L-glutamate CRC HillSlope: 1.4
  L-glutamate CRC LogEC50: −7.2
  L-glutamate CRC Top: 87
[4]; with test item 3.1 μM
  L-glutamate CRC Bottom: −1.3
  L-glutamate CRC HillSlope: 1.3
  L-glutamate CRC LogEC50: −7.1
  L-glutamate CRC Top: 59
[4]; with test item 12.5 μM
  L-glutamate CRC Bottom: 1.4
  L-glutamate CRC HillSlope: 1.5
  L-glutamate CRC LogEC50: −6.7
  L-glutamate CRC Top: 26
[4]; with test item 50 μM
  L-glutamate CRC Bottom: −97133
  L-glutamate CRC HillSlope: 0.14
  L-glutamate CRC LogEC50: −37
  L-glutamate CRC Top: 19
[1]
  profile on L-glutamate CRC: insurmountable profile
[5]
  α, estimated cooperativity term: 0.094
[5]; hydrochloride
  L-glutamate CRC HillSlope: 2.1 and 1.5 and 1.1 and 1.7 and 1.4

## N[C@@H](CCC(=O)O)C(=O)O [L-glutamate, L-glutamic acid]
[2]; [11]
  Bottom: −0.62
  HillSlope: 1.0
  Span: 107
  Top: 106
[2]; [12]
  ECF, F=5: 160 nM
  ECF, F=10: 280 nM
  ECF, F=20: 630 nM
  ECF, F=30: 1.07 µM
  ECF, F=40: 1.67 µM
  ECF, F=90: 23 µM
  ECF, F=95: 48 µM
  ECF, F=99 (maximal effect): 250 µM
[3]; [11]
  Bottom: 0.88
  HillSlope: 1.5
  LogEC50: −7.1
  Span: 105
  Top: 106
[3]; [12]
  ECF, F=5: 120 nM
  ECF, F=10: 200 nM
  ECF, F=20: 350 nM
  ECF, F=30: 500 nM
  ECF, F=40: 660 nM
  ECF, F=90: 3.76 µM
  ECF, F=95: 6.19 µM
  ECF, F=99 (maximal effect): 19 µM
[6]; 0.04 μM L-Glu
  calcium response (mean±SEM): −1.2 ± 0.6
[6]; 0.2 μM L-Glu
  calcium response (mean±SEM): 30 ± 1.7
[6]; L-glutamate alone
  intracellular calcium increase elicited by 0.2 μM L-glutamate: 30±1.7%
[6]; Table 41: 0.04 μM L-Glu
  calcium response (mean±SEM): −1.2 ± 0.6
[6]; Table 43: 0.2 μM L-Glu
  calcium response (mean±SEM): 30 ± 1.7
[4]; [11]
  Bottom: 5.3
  HillSlope: 1.6
  LogEC50: −7.5
  Span: 99
  Top: 105
[4]; [12]
  ECF, F=5: 54 nM
  ECF, F=10: 86 nM
  ECF, F=20: 140 nM
  ECF, F=30: 200 nM
  ECF, F=40: 260 nM
  ECF, F=90: 1.34 µM
  ECF, F=95: 2.14 µM
  ECF, F=99 (maximal effect): 6 µM and 6.01 µM
[7]; 0.04 μM L-Glu
  calcium response (mean±SEM): −0.9 ± 0.6
[7]; 0.2 μM L-Glu
  calcium response (mean±SEM): 18 ± 1.2
[7]; Table 41: 0.04 μM L-Glu
  calcium response (mean±SEM): 0.9 ± 0.6
[7]; Table 43: 0.2 μM L-Glu
  calcium response (mean±SEM): 18 ± 1.2
[8]; 0.04 μM L-Glu
  calcium response (mean±SEM): 18 ± 1.2
[8]; 0.2 μM L-Glu
  calcium response (mean±SEM): 92 ± 2.0
[8]
  efficacy of 0.2 μM L-glutamate alone: 92±2.0%
[8]; Table 41: 0.04 μM L-Glu
  calcium response (mean±SEM): 18 ± 1.2
[8]; Table 43: 0.2 μM L-Glu
  calcium response (mean±SEM): 92 ± 2.0
[9]; 0.04 μM L-Glu
  calcium response (mean±SEM): 1.7 ± 0.3
[9]; 0.2 μM L-Glu
  calcium response (mean±SEM): 22 ± 0.7
[9]; Table 41: 0.04 μM L-Glu
  calcium response (mean±SEM): 1.7 ± 0.3
[9]; Table 43: 0.2 μM L-Glu
  calcium response (mean±SEM): 22 ± 0.7
[5]
  Bottom: 1.7
  ECF, F=5: 140 nM
  ECF, F=10: 240 nM
  ECF, F=20: 450 nM
  ECF, F=30: 680 nM
  ECF, F=40: 950 nM
  ECF, F=90: 7.05 µM
  ECF, F=95: 13 µM
  ECF, F=99 (maximal effect): 45 µM
  HillSlope: 1.3
  Span: 109
  Top: 111
